# Measured values as given in patent US4816490A, “Novel therapeutic use of a derivative of indane dione and the pharmaceutical compositions intended for this use” (priority 1987, dated 1989).
# Legend:
# [1] = system: male and female mice of Swiss strain; test: Acute toxicity after single intraperitoneal administration; format: in vivo; conditions: IP
# Source text: Male and female mice of Swiss strain weighing from 22 to 25 g of body weight were free of pathogen specific organisms (EOPS), stemming from breeding CERJ (53860 LE GENEST (France) and acclimated for at least 8 days in the animalry of the firm.
# Except where stipulated to the contrary, in the tables giving the results, 10 animals of the same sex for each dose were housed in cages of MAKROLON (Safi) of 40 cm by 25 cm filled with shaving of wood. Standard feeding for rats and mice, tablets UAR and tap water ad libitum.
# The compounds were administered without previous fasting either orally (gastric tubing using a metallic oesophageous sonde) at a rate of 0.5 ml or 1 ml per 20 g of body weight of an aqueous suspension of the test compound in a 3% solution of arabic gum, or intraperitoneally at a rate of 0.5 ml or 1 ml per 20 g of body weight of the test compound suspended in an isotonic saline solution containing 3% of arabic gum.
# For 6 days after the single administration and then every day for 15 days.
# When necessary, the mean lethal doses (LD 50) were calculated by the method of Behrens and Karber (BK) and Miller and Tainter (MT). The latter allowing to supply with, for the threshold of probability P=0.05 a limit of confidence for the LD 50. Further calculated were the LDo i.e. DMT=maximal doses always tolerated and the LD100 i.e. DMM=minimal doses always lethal.
# [2] = system: hyperlipidaemia / atheroma in Wistar rats on atheromatogenous regimen; test: Biochemical testings in rats on atheromatogenous (cholesterol-rich) diet, including atheroma risk ratios; format: in vivo, rat
# Source text: (§1) The method utilized for the test was that, slightly altered of Aubert D. Feraud J. C., Lacaze B., Pepino., Ponak E. et Podesta M. as described in Atherosclerosis, Vol. 20 (1974), p. 263-280 (Experimental Atherogenesis in the Wistar Rat).
# (§2) Female rats of Wistar strain, free of specific pathogenic germs (EOPS) stemming from the breeding EVIC-CEBA
# Mean body weight: 160-180 g at the start of the test
# (§3) Diet: standard tablets UAE AO 3 enriched in cholesterol (0.5%) and in cholic acid (0.5).
# 15 animals per each batch and by cage in MACROLON (Safi) of 59 cm×38 cm, 5 cm filled with a litter of shavings of wood.
# (§4) Diet of the animals: the animals were given the atheromatogenous regimen then while maintaining the same regimen, they were given for 4 days 250,000 IU/kg of vitamin D2 dissolved in olive oil (Sterogyl 15H). The compounds to be tested were given thereafter for 4 weeks immediately after the termination of the atheromatogenous regimen.
# At the end of these studies the following tests were performed on all surviving animals.
# Esterified blood cholesterol
# Cholesterol in LDL (estimate)
# The total score for each product was obtained by adding each individual scores and allowed the following classification
# The protection against the atheromatogenous risk was evaluated using the following ratios: […]
# [3] = system: atheromatous deposits of the aorta, Wistar rats; test: Macroscopic examination of aorta atheroma in rats on atheromatogenous diet; format: in vivo, rat
# Source text: as §1, §3
# After the studies, all the animals were sacrificed by subtotal puncture of the blood in the abdominal aorta after anesthesia by intravenous sodium Pentobarbital. The hearts, livers, aortas on which the score of atheroma was determined were taken. For this purpose, the aortas were longitudinally cut, then spread to allow a whole insight of the endothelial coating from the aortic valves until the branching of the coeliac stem (lower portion of the thoracic aorta).
# Aorta was from an anatomic point of view divided into two parts:
# Zone 1: aortic valves-first intercostal arters
# Zone 2: first intercostal arters and branching of the coeliac stem
# The intensity of the atheromatous deposits was determined according to the following scores:
# Score 1: Discrete (<1 mm) and few deposit
# Score 2: Numerous and discrete deposits
# Score 3: Numerous and marked deposits (<1 mm)
# Score 4: Very marked deposits or very numerous deposits but letting some uninfiltrated areas
# Score 5: Deposits on the whole epithelium
# Two parameters were considered:
# the intensity of the observed damages determined according to the previously-given scores.
# [4] = system: female rats of Wistar strain; test: Tolerance, mortality and body weight in the rat atheroma study; conditions: 100 mg/kg
# Source text: as §2, §4
# The behavior and the changes in weight of the animals were surveyed every day as well as by weekly weighing.
# [5] = system: atheroma / hyperlipidaemia in Wistar rats on atheromatogenous regimen; test: Overall hypolipaemiant and anti-atheromatous classification (summarized scores); format: in vivo, rat; conditions: 100 mg/kg
# Source text: as §1, §2, §3, §4
# [6] = French patent 2,382,424; cited from earlier work
# [7] = same doses, cholesterol-rich diet
compound,measurement,setting,value
"COc1ccc(C(=O)CC2(O)C(=O)c3ccccc3C2=O)cc1OC [Compound of the invention, 2-[(3,4-dimethoxy-benzoyl)-methyl]-2-hydroxy-1,3-dioxo Indane]",Symptoms after injection,[1],crawling after the injection then a protracted prostation took place with piloerection and bradypnea cyanosis
same,Mortality in 10 mice,"[1]; 2000 mg/kg, females",0
same,Mortality in 10 mice,"[1]; 2000 mg/kg, males",0
same,Mortality in 10 mice,"[1]; 2500 mg/kg, females",1
same,Mortality in 10 mice,"[1]; 2500 mg/kg, males",1
same,Mortality in 10 mice,"[1]; 3000 mg/kg, females",6
same,Mortality in 10 mice,"[1]; 3000 mg/kg, males",3
same,Late mortalities,"[1]; 3 to 4 g/kg, after 5 to 7 days",generally 1 death per dose for each sex
same,Mortality in 10 mice,"[1]; 3500 mg/kg, females",8
same,Mortality in 10 mice,"[1]; 3500 mg/kg, males",5
same,Mortality in 10 mice,"[1]; 4000 mg/kg, females",10
same,Mortality in 10 mice,"[1]; 4000 mg/kg, males",8
same,Mortality in 10 mice,"[1]; 4500 mg/kg, females",10
same,Mortality in 10 mice,"[1]; 4500 mg/kg, males",10
same,Mortality in 10 mice,"[1]; 5000 mg/kg, females",10
same,Mortality in 10 mice,"[1]; 5000 mg/kg, males",10
same,LD100 (minimal dose always lethal),[1]; female mice,4000 mg/kg
same,LDo (maximal dose always tolerated),[1]; female mice,2000 mg/kg
same,LD100 (minimal dose always lethal),[1]; male mice,4500 mg/kg
same,LDo (maximal dose always tolerated),[1]; male mice,2000 mg/kg
same,Toxicity in comparison with Clofibrate,[1]; single administration,markedly less toxic than Clofibrate
same,"Cholesterol in LDL / Cholesterol in HDL, % in comparison with Controls-Diet",[2]; 100 mg/kg,-36.10%
same,"Total Blood Cholesterol / Cholesterol in HDL, % in comparison with Controls-Diet",[2]; 100 mg/kg,-33.22%
same,"Cholesterol in HDL, variation in comparison to controls-Diet","[2]; 100 mg/kg, 4 weeks",-33.33%
same,"Esterified cholesterol, variation in comparison to controls-Diet","[2]; 100 mg/kg, 4 weeks",-57.70%
same,"Total Blood lipids, variation in comparison to controls-Diet","[2]; 100 mg/kg, 4 weeks",-48.47%
same,"Total blood cholesterol, variation in comparison to controls-Diet","[2]; 100 mg/kg, 4 weeks",-55.47%
same,"Triglycerids, variation in comparison to controls-Diet","[2]; 100 mg/kg, 4 weeks",-25.86%
same,"Cholesterol in LDL, variation in comparison to controls-Diet","[2]; 100 mg/kg, 4 weeks, LDL (estimate)",-57.41%
same,Atheromatous risk total score,"[2]; 100 mg/kg, listed as Compound according to this invention",0.90
same,Atheromatous risk total score,"[2]; 100 mg/kg, listed as Compound of this invention",0.90
same,Activity on the biochemical level vs Clofibrate,[2]; [7],as active as Clofibrate on the biochemical level
same,Macroscopical examination total score,[3]; 100 mg/kg,2.57
same,"Damaged animals, % of decrease in comparison with Controls-Diet","[3]; 100 mg/kg, macroscopical",-30.77%
same,"Damaged animals, percentage","[3]; 100 mg/kg, macroscopical",69.23%
same,"Damaged animals, score in relation to Clofibrate","[3]; 100 mg/kg, macroscopical",1.69
same,"Intensity of the damages, % of decrease in comparison with Controls-Diet","[3]; 100 mg/kg, macroscopical",-22.68%
same,"Intensity of the damages, score in relation to Clofibrate","[3]; 100 mg/kg, macroscopical",0.88
same,Frequency of macroscopic damages,[3]; cholesterol-rich diet,a lower frequency of macroscopic damages
same,Intensity of observed damages,[3]; cholesterol-rich diet,a lower intensity of the observed damages
same,Activity on macroscopic damages vs Clofibrate,[3]; [7],more active when evaluating the macroscopic damages
same,Mortality compared with batch No. 2 (2/15),"[4]; 4 weeks, atheromatogenous regimen",did not increase it
same,Tolerance compared with Clofibrate,"[4]; rat, in vivo",better tolerated
same,Classification of the anti-atheromatous action,[5],Compound of the invention>Fenofibrate>Clofibrate
same,Hypolipaemiant and anti-atheromatous activity,[5],"marked hypolipaemiant and anti-atheromatous activity, very close to Clofibrate (100 mg/kg) and far better than those of Fenclofibrate (100 mg/kg)"
same,Dose inducing an anti-inflammatory threshold effect,[6],250 mg/kg
